This is an account of results in article PMC2957295 (Biochemistry, 2010).

SMILES strings stand for the structures.

The target of this test is T1, Fas (Homo sapiens, UniProt P25445).
T1 sequence (P25445 26-335): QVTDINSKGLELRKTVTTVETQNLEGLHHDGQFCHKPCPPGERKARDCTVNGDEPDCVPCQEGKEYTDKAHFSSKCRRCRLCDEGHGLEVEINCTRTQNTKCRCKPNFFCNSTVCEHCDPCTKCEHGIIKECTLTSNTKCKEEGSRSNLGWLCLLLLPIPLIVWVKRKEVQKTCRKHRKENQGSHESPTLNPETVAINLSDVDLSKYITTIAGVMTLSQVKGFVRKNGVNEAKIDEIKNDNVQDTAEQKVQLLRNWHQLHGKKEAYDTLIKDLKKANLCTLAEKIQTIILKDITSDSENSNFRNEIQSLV
In words: anti-Fas immunoprecipitation of treated cells, Western blot for 4-HNE adduct. In kind it is cell-based. To be noted: covalent; HepG2 cells, 20 µM 4-HNE, 2 h. A general note: A western blot detects proteins with antibodies after separation by electrophoresis.

On to `CCCCCC(O)/C=C/C=O` (stereo not shown) [4-hydroxy-2-nonenal], for which the 4-HNE-Fas adduct result is “shows the presence of Daxx and 4-HNE-Fas adduct”.
